Laboratory results published in patent US20250263437A1, “POLYPEPTIDE FOR REPAIRING SKIN WOUND OR MUCOSAL INJURY, AND APPLICATION THEREOF” (Sichuan Gooddoctor Panxi Pharmaceutical Co., Ltd., priority 2021, published 2025).
Where no end group is shown, it is not given here.

target: FGFR1 (Homo sapiens, UniProt P11362); assay: FGFR receptor binding assay: ultrafiltration/mass spectrometry affinity screening to FGFR1 protein target; conditions: ratio of lower-layer to upper-layer compound MS signal intensity; the greater the ratio, the stronger the affinity
Sequence (P11362 22-822, species assumed): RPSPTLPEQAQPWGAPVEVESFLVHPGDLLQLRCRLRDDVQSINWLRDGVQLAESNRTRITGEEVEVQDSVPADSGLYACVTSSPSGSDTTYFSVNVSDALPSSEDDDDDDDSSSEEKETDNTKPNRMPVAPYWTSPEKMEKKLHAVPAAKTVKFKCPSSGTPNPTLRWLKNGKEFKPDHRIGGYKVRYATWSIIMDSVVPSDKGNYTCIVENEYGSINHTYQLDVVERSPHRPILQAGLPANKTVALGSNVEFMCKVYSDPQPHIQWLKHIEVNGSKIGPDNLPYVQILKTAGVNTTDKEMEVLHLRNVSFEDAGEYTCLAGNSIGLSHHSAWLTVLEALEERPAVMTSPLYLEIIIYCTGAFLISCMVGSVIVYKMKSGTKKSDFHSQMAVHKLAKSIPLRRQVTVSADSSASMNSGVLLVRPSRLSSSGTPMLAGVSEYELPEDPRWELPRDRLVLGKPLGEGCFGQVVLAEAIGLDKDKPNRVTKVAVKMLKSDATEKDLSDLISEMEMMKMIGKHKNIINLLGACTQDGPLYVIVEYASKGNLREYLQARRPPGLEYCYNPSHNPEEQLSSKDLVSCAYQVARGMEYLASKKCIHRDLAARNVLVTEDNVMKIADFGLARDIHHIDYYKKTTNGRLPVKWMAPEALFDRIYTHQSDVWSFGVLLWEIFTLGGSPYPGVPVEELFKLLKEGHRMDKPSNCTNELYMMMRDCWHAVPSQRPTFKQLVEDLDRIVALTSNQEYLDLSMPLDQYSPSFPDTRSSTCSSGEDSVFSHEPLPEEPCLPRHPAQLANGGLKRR
Experimental: The affinity of the polypeptide compound prepared by the present invention to FGFR1 was tested by using a control FGFR1 allosteric inhibitor (product number SSR128129E from Sigma) as a positive compound control.
Screening for the affinity to FGFR1 was as follows: FGFR1 solutions with an appropriate concentration were taken, the positive compound SSR128129E (Sigma) at an appropriate concentration and sample solutions of the inventive polypeptide compounds, as freeze-dried powders, dissolved in protein buffers were then respectively added. After incubation at room temperature for 50 min, ultrafiltration and screening were carried out to obtain various treated solutions. An appropriate volume of acetonitrile was added to each treated solution to precipitate a protein, the solution was then centrifuged, and the supernatant was taken and analyzed by mass spectrometry.
Affinity screening conditions: One-dimensional liquid-phase conditions were: chromatographic column; PolyLC chromatographic column, mobile phase A: KH2PO4, NaCl, pH 7.5, mobile phase B: acetonitrile, column temperature: 8° C., flow rate: 1 mL/min, and injection volume: appropriate; and two-dimensional liquid-phase conditions were: chromatographic column: BONUS RRHD, mobile phase A: 0.1% formic acid aqueous solution, mobile phase B: 0.1% formic acid in acetonitrile, column temperature: 60° C., flow rate: 0.3 mL/min, and injection volume: 40 uL. Gradient elution was used, i.e., 98% A (0-1 min), 98-10% A (1-6 min), 10% A (6-7.5 min), 10-98% A (7.5-8 min), and 98% A (8-9.5 min). Mass spectrometry conditions: Agilent 6530 Q-Tof, ESI ion source, voltage 3.5 KV, mass-to-charge ratio scanning range m/z=200-3000, acquisition mode: positive ion scanning, ion source temperature: 350° C., solvent removal temperature: 300° C., and nitrogen flow rate: 8 L/min.

Substance	Cb/Ct range
FDALKQQFQAFQLE [Compound 62]	1.0-3
AAVLEKLE [Compound 69]	1.0-3

test system: ethanol-induced gastric ulcer model in mice; assay: Anti-ulcer effect on ethanol-induced gastric ulcer model in mice; type: in vivo; conditions: single administration; ulcer inhibition rate of test compound / ulcer inhibition rate of Compound 1
Experimental: Experimental animals: Six-week old C57BL/6JGPt male mice, weighing about 20 g/mouse, were selected, with 10 mice in each group, from GemPharmatech (Chengdu) Co., Ltd., animal license number: SCXK (Chuan) 2020-034. After the experimental animals were divided into groups, they were dosed according to Table 5 one day before the experiment. Among the groups, the model group was given 200 μl of pure water, and the other dose groups were given 200 μl of drug solution. After that, all the animals were fasted for 24 h with free access to water. The next day, 1 h after administration, the mice in each group were given 9 μl/g of absolute ethanol by oral gavage for modeling. After 1 h, the animals were sacrificed by cervical dislocation, the gastric cardia was ligated, the pylorus was occluded, and the whole stomach was removed. 1 mL of 1% formaldehyde solution was injected into the gastric lumen via the glandular stomach, the cardia was ligated, and the stomach was taken out and immediately immersed in 1% formaldehyde solution. After soaking for 30 min, the stomach tissue was taken out and cut open along the greater curvature. The content of the stomach was rinsed off with normal saline, the injury of the gastric mucosa in the mice were observed and measured after being laid flat, and the ulcer index and ulcer inhibition rate were calculated; panoramic photos of the stomach were taken; and finally, the gastric tissue sample was immersed in formalin and fixed. Calculation method for ulcer index: If the length of cord-like injury was greater than 1 mm, the length thereof was measured, with 1 point per millimeter; if the width thereof was greater than 1 mm, the score thereof was doubled according to the number of millimeters of the width; and if the length was less than 1 mm, a score of 0.5 was given, and the scores were added up to obtain the ulcer index of the animal. Method of data statistics: the ulcer index was expressed as mean±standard deviation; the ulcer inhibition rate was calculated by using the median value and mean value of the ulcer index in each dosage group and simulation group; and the data were statistically analyzed by means of Excel, and the difference data of the gastric ulcer index were statistically analyzed by means of independent sample T test.

Substance	Anti-ulcer activity (mean relative ulcer inhibition rate)
TMQASLEAEAKGKAE [Compound 40]	0.18
RKDVYEAEAKGKAE [Compound 59]	0.48
SMQASLEAAAKGKAE [Compound 20]	0.56
SMQASLEAEAKGKAQE [Compound 50]	0.09
SMQASLEAEAKGKAD [Compound 23]	0.70
SMQASLEAEAKGKAKQE [Compound 58]	0.52
SMQASLAAEAKGKAE [Compound 19]	0.64
FDALKQQFQAFQLE [Compound 62]	0.89
SMQASL [Compound 8]	0.89
EAEAAGKAE [Compound 61]	0.52
Glu-Ala-Glu-Ala (EAEA; printed: Glu-Ala-Glu-Ala) [Compound 45]	0.50
SMQASLEAEARGKAE [Compound 30]	0.33
SMQASLEAEAKGKAQD [Compound 49]	0.48
SMQASLEAEAKGKAA [Compound 27]	0.51
SVQASLEAEAKGKAE [Compound 12]	0.68
TASTLEAEAKGKAE [Compound 47]	0.61
SMQASLEAEAKGKAEL [Compound 51]	0.62
SMQASVEAEAKGKAE [Compound 42]	0.84
SMQASLEAEAAGKAE [Compound 18]	0.91
SMQASLEAEAKGKSE [Compound 60]	1.03
SMQASLLAEAKGKAE [Compound 33]	0.31

Substance	Anti-ulcer activity (mean relative ulcer inhibition rate)
SMQASLEAEAKGKAEA [Compound 52]	0.67
QASLEAEAKGK [Compound 4]	0.82
SMQASLEAEAKPKAE [Compound 57]	1.12
Teprenone [reference compound]	0.5
SMQASAEAEAKGKAE [Compound 15]	0.72
EAEAKGK [Compound 46]	0.47
SMQAALEAEAKGKAE [Compound 28]	0.67
SLQASLEAEAKGKAE [Compound 17]	0.74
AEPVPLEAEAKGKAE [Compound 54]	0.59
SMQATLEAEAKGKAE [Compound 41]	0.92
SMQASLEAEAKGHAE [Compound 31]	0.50
Ser-Met (O)-Gln-Ala-Ser-Leu-Glu-Ala-Glu-Ala-Lys-Gly-Lys-Ala-Glu [Compound 11]	1.08
SMQASLEAEAKGRAE [Compound 25]	0.36
SMQASLEAEAKGKAN [Compound 24]	0.62
AMQASLEAEAKGKAE [Compound 29]	1.00
Gln-Ala-Ser-Leu (QASL; printed: Gln-Ala-Ser-Leu) [Compound 9]	0.59
Gly-Lys-Ala-Glu (GKAE; printed: Gly-Lys-Ala-Glu) [Compound 10]	0.56
SAQASLEAEAKGKAE [Compound 16]	0.98
SMQASLEAEAKAKAE [Compound 56]	0.91
SIQASLEAEAKGKAE [Compound 22]	0.81
PAAEPVPLEAEAKGKAE [Compound 55]	0.20

Substance	Anti-ulcer activity (mean relative ulcer inhibition rate)
SMQASLEAEAKGKAQ [Compound 13]	1.02
SMQASLEAQAKGKAE [Compound 36]	0.07
SMQASLEAEAHGKAE [Compound 32]	0.52
EAEAKGKAE [Compound 7]	1.69
STQASLEAEAKGKAE [Compound 48]	1.19
SMQASLQAQAKGKAE [Compound 14]	0.49
SMQASLEAEAKGAAE [Compound 26]	0.56
AAVLEKLE [Compound 69]	1.25
SMQASLEAEAKGKAKQD [Compound 53]	0.44
SMQASLEADAKGKAE [Compound 39]	0.83
SMQASLDAEAKGKAE [Compound 38]	1.38
SMEASLEAEAKGKAE [Compound 37]	0.22
SMQASLQAEAKGKAE [Compound 35]	0.57
QASLEAEAKGKAE [Compound 2]	0.45
SMQASLEAESKGKAE [Compound 44]	0.16
SMQASLEALAKGKAE [Compound 34]	0.91
SMQASLEAEAKGK [Compound 3]	0.33
SMQASLEAEAK [Compound 5]	0.84
SMQASLESEAKGKAE [Compound 43]	0.30
SMAASLEAEAKGKAE [Compound 21]	0.87

test system: HaCaT cells; assay: Proliferation of HaCaT cells (CCK8); type: cell-based, human; conditions: 0.2-0.8 μg/mL; 24 h, 48 h and 72 h; 1% serum
Experimental: Experimental method: Immortalized human keratinocytes (HaCaT cells) was adjusted to a concentration of 1.0×10^5 to 5.0×10^5/mL for passaging, and they were cultured at 37° C. and 5% CO2 for 24-36 h for biological activity detection. The cells were digested with 0.25% trypsin for 5 min, 1640 whole blood culture medium, the volume of which was not less than 1 time of the volume of the trypsin, was added to stop digestion, a cell suspension was collected, centrifuged at 1000 RPM for 3 min, the supernatant was discarded, 2 mL of 1640 whole blood culture medium was added to suspend the cells, 20 μL of the cell suspension was taken and stained with AOPI, the concentration of cells in the suspension was then detected by a cell counter, the suspension was prepared to a concentration of 5×10^4/mL with 1640 culture medium containing serum at a concentration of 10% and inoculated into a 96-well cell culture plate, with 100 μL per well, i.e., 5000 cells/well, and the plate was cultured at 37° C. and 5% CO2 overnight.
After 24 h, the original culture medium was discarded, and 100 μL of polypeptide compound solutions with different concentrations prepared with 1640 culture medium containing serum at a concentration of 1% were added, such that the final concentrations of the polypeptide compounds to be tested were 0.2, 0.4 and 0.8 ug/mL, respectively. In addition, an EGF control group was prepared by adding 100 μL of a recombinant human epidermal growth factor (EGF) solution prepared with 1640 culture medium containing serum at a concentration of 1%, with the final concentration being 100 ng/ml. In the model control group, an equal volume of 1640 culture medium containing serum at a concentration of 1% was added. After culturing at 37° C. and 5% CO2 for 24 h, 48 h and 72 h, the proliferation of the HaCaT cell line was detected by means of CCK8 kit.

Substance	effect on proliferation of HaCaT cells
SMQASLEAEAKPKAE [Compound 57]	proliferation-promoting effect
AAVLEKLE [Compound 69]	proliferation-promoting effect
SMQASLEAEAKGKAKQD [Compound 53]	proliferation-promoting effect
